Test results: publication PMC5770468, “Cardiac glycoside/aglycones inhibit HIV-1 gene expression by a mechanism requiring MEK1/2-ERK1/2 signaling” (Scientific Reports, 2018)
Where two headings read alike, the source gives them in different places.

Key:
HeLa rtTA-HIV-ΔMls cells = test: In vitro therapeutic index (CC20/IC50) in HeLa rtTA-HIV-ΔMls cells; assay type: cell-based, human
Excerpt: Without median toxic dose (TD50) and half-maximal effective concentration (EC50) data available to calculate TIs (in vivo) from HIV patients treated with CSs, we determined the following TIs for each cell type treated with a CS (summarized in Supplementary Table S1): in vitro TIs from HeLa rtTA-HIV-ΔMls cells using CC20/IC50 (instead of CC50/IC50), in vitro TIs from 24ST1NLESG cells using CC50/IC50, and ex vivo TIs from HIV-infected PBMCs using CC50/IC50 (at day 14 of culture approximated from available cell viability trends for CC50s of Supplementary Fig. S13 and inferred near maximal IC50s).
Supplementary Table S1. Comparison of the in vitro (IVTI) and ex vivo therapeutic indices (EVTIs) of CSs and their impact on the expression of essential HIV-1 proteins.
Notes: data for CC20, CC50, and IC50s for each drug/compound were estimated from dose response curves in Figures 1-2, Supplementary Table S1, Supplementary Figures S2, S5, and S13, and Wong et al.
">" means the estimate has not been accurately determined but is greater than the highest concentration […]
"( )" indicates preliminary data that was not shown. aCC20 instead of CC50 was estimated from dose response curves and used for calculation of IVTIs. bCells were treated at ~IC90of a CS.
(1 picture or pasted object on this page, not shown here)

[1] = system: HIV-1 (Gag) gene expression; test: HIV-1 (Gag) gene expression in HeLa rtTA-HIV-ΔMls cells, p24CA ELISA dose response; assay type: cell-based, HIV-1 (LAI); settings: for IC50: read-out: IC50 (nM) HeLa rtTA-HIV-ΔMls
Protocol: Drug/compounds were tested for effects on HIV-1 gene expression using inducible Tet-ON HIV-1 cell lines [HeLa rtTA-HIV-ΔMls or rtTA-HIV(Gag-GFP)] containing a HIV-1 (LAI) provirus activatable by Dox or tetracycline transactivator (tTA)[69]. The rtTA-HIV-ΔMls provirus was modified and used as previously reported[9]–[11],[70]. The rtTA-HIV(Gag-GFP) provirus was generated by deletion of the PR and RT coding regions within pol and insertion of GFP to the 3′ of gag, creating GFP fused to the C-terminal of Gag. After 4 h of drug/compound treatment, HIV-1 gene expression was activated with Dox (2 μg/mL) or tTA (described below). Equal concentrations of DMSO were present in each experiment. After ~20 h, cells and media were harvested to monitor the effects of drug/compound treatments as described below. HIV-1 gene expression was quantified via p24^CA ELISA or monitoring Gag-GFP fluorescence in cells as described below. In parallel, cell viability of treatments were assessed by XTT assay (Sigma-Aldrich, #TOX2).
Drug/compounds were purchased from Sigma (Digoxin, #D6003; Digitoxin, #D5878; Digoxigenin, #D9026; Digitoxigenin, #D9404; Ouabain, #O3125; Bufalin, #S961175; Cinobufagin, #C1272; and Anisomycin, #A9789) and derivatives of convallatoxin were synthesized from C. Lingwood’s lab of the Hospital for Sick Children (convallatoxin, peruvoside, RIDK-34, -36, -20, -21, -27, and -28). […] Recombinant human EGF was from Invitrogen (#PHG0314). Chemical structures were drawn in ChemSketch (ACD/Labs).
To monitor HIV-1 gene expression or replication, Gag release into cell culture supernatants were assayed by ELISA using a p24^CA antigen capture assay kit (AIDS & Cancer Virus Program, NCI-Frederick, Frederick, MD USA). Media harvested from HIV clinical isolates were diluted ~10 fold (or as necessary) prior to performing this assay. For analysis of HIV-1 and SR protein expression (and phosphorylation states with calf intestinal alkaline phosphatase treatments), cells were lysed and analyzed by western blot as previously outlined. Phosphatase inhibitors (e.g. 10 mM sodium fluoride, 2 mM sodium orthovanadate) were added to solutions requiring phospho protein analyses. An anti-chicken NKA antibody (α6F, #a6F–c, Developmental Studies Hybridoma Bank, The University of Iowa, contributed by Douglas M. Fambrough, The Johns Hopkins University) was used as specified to detect NKA α1- and β1-subunits across species. […] Activation of MAPKs was determined by western blot quantitation and calculation of phospho/total protein levels. […] Images were exported as TIF files for assembly, rotation, and equal brightness/contrast adjustments in ImageJ or Microsoft Powerpoint. Some lanes were cropped and rearranged from the same blot/gel as indicated. In representative gel/blot sets, samples were electrophoresed from the same experiment as controls, resolved simultaneously on identically cast gel(s), transferred to same PVDF (by either wet electrophoretic or by Bio-Rad Trans-Blot® Turbo Transfer System), and detected at same time. Marked locations of molecular weight (MW) standards are shown on the left as a reference. […] SUnSET analysis of total cellular protein synthesis. HeLa rtTA-HIV-ΔMls cells were cultured in the presence/absence of compound and pathway inhibitor (if any) and Dox induced for ~24 h as already described, then treated with puromycin (10 μg/mL, Sigma-Aldrich, #P8833) for 30 min to label nascent proteins prior to harvest. As control, 10 µM of cycloheximide (Sigma-Aldrich, #C4849) was added to some cells prior to puromycin treatment. Cells were subsequently washed, whole cell lysates prepared, and proteins quantified by western blot using an anti-puromycin antibody (EMD Millipore, #anti-12D10) as described above. Transfection of plasmid DNA into cells.

HIV-1 Gag-GFP expression = test: Recovery of HIV-1 Gag-GFP expression by pathway inhibitors in the presence of CSs, HeLa rtTA-HIV(Gag-GFP) cells; assay type: cell-based; settings: 12 μM U0126; 5.5 μM Selumetinib; 10 μM LY294002; 5 µM KB-R7943; CSs at ~IC80
Protocol: Figure 5 Effect of modulating NKA expression, [Ca^2+]i, and PI3K-AKT on HIV-1 gene expression. Depletion of the NKA perturbs HIV-1 RNA processing (n ≥ 3, mean, s.e.m.). HeLa rtTA-HIV(Gag-GFP) cells were transduced with two shRNAs (E6/E10) to knockdown expression of the NKA α1 subunit and their effect on HIV-1 gene expression analyzed. After positive selection of cells with puromycin for 24–48 h, HIV-1 expression was Dox induced for 20 h, and cells harvested for analyses. Total mRNA (and protein) was isolated from cells, reverse transcribed, and analyzed by qRT-PCR and data normalized to β-actin (a,c). Results are shown relative to Stuffer (+). (a) Expression levels of NKA α1 mRNAs assayed by qRT-PCR. (b) HIV-1 Gag expression assayed by p24^CA ELISA of cell lysates (40 μg). (c) Accumulation of HIV-1 US (black), SS (white), and MS (gray) mRNAs quantified by qRT-PCR. (d–g) CSs suppress HIV-1 gene expression independent of intracellular Ca^2+ flux/signaling and PI3K-AKT activation. HeLa rtTA-HIV(Gag-GFP) cells were pre-treated with either a chelator of [Ca^2+]i (5 µM BAPTA-AM, [Ca2+]ii), inhibitors of NCX Ca^2+-entry (5 µM KB-R7943, NCXi) or PI3K (10 μM LY294002, PI3Ki), or untreated (DMSO, no pathway inhibitor) for ~2 h prior to treatment with ~IC80s of CSs or DMSO for 4 h, and Dox induced for ~20 h. The pathway used by a CS to inhibit HIV-1 expression was determined by monitoring for recovery of Gag-GFP expression by measuring GFP fluorescence in cell lysates (and initially by plate scans of live/fixed cells, Supplementary Fig. S7a and S8c). (d) Levels of [Ca^2+]i measured by Fura Red AM™ (n ≥ 4, mean, s.e.m.). (e–f) Quantification of Gag-GFP expression by reducing SDS-PAGE in lysates (35 μg) of cells which were pre-treated with/without KB-R7943 (n ≥ 3–4 mean, s.e.m.). […] (g) Graph quantitating Gag expression by p24^CA ELISA in lysates of cells (35 μg) that were pre-treated with/without LY294002 (n ≥ 3, mean, s.e.m.). Statistical comparisons in (a–g) were performed as illustrated (black/gray dashed lines) or described in Methods.
Figure 6 CSs control HIV-1 gene expression through intracellular signaling. HeLa rtTA-HIV(Gag-GFP) cells were pre-treated with/without pathway inhibitor overnight (~15 h) and treated with ~IC80s of CSs. […] Graphs quantifying the activation level (phospho/total protein) of each MAP/MAPK by western blot. […] The signaling pathway(s) used by a CS to inhibit HIV-1 expression was determined by detecting Gag-GFP fluorescence in cell lysates (~35 μg) by reducing SDS-PAGE after pre-treatment of cells with a MEK1/2 (12 μM U0126, white), p38α/β/β2 (15 μM SB203580/p38i, gray), or JNK1/2/3 (1.25 μM SP600125/JNKi, hatched) inhibitor (n ≥ 5–7, 4–8, and 3–7, resp., mean, s.e.m.). […]

[2] = Human immunodeficiency virus 1, HeLa
[3] = Human immunodeficiency virus 1, HeLa, read-out: IC90, HIV-1 (Gag) gene expression

CC(=O)O[C@H]1[C@H]2O[C@]23[C@@H]2CC[C@@H]4C[C@@H](O)CC[C@]4(C)[C@H]2CC[C@]3(C)[C@H]1c1ccc(=O)oc1 [Cinobufagin]
better in vitro TI than digoxin (HeLa rtTA-HIV-ΔMls cells): 2.3 fold | IC50 [1, 2]: 24 nM | IC90 [1, 3]: 40 nM | IC80 ([1]; Human immunodeficiency virus 1, HeLa, read-out: ~IC80 (approximate concentration used in experiments)): ~40 nM | IC90 ([1]; Human immunodeficiency virus 1, HeLa, read-out: ~IC90 (approximate concentration used in experiments)): ~40 nM | better anti-HIV-1 activity than digoxin ([1]; cell based assays (HeLa rtTA-HIV-ΔMls)): 1.9 fold

C[C@@H]1O[C@@H](O[C@H]2CC[C@]3(C=O)[C@H]4CC[C@]5(C)[C@@H](C6=CC(=O)OC6)CC[C@]5(O)[C@@H]4CC[C@]3(O)C2)[C@H](O)[C@H](O)[C@H]1O [Convallatoxin]
better in vitro TI than digoxin (HeLa rtTA-HIV-ΔMls cells): 6.8 fold | better anti-HIV-1 activity than digoxin [1]: 3.8 fold | IC50 ([1]; Human immunodeficiency virus 1, HeLa, HIV-1 Gag expression, p24CA ELISA, 4 h drug then Dox ~20 h): 12 nM | IC90 ([1]; Human immunodeficiency virus 1, HeLa rtTA-HIV-ΔMls cells, read-out: IC90, HIV-1 (Gag) gene expression): 24 nM

O=c1cc(N2CCOCC2)oc2c(-c3ccccc3)cccc12 [LY294002]
reversal of CS inhibition of HIV-1 Gag-GFP expression by pathway inhibitor pre-treatment (HIV-1 Gag-GFP expression): did not reverse

CO[C@H]1[C@H](O)[C@H](O[C@H]2CC[C@@]3(C=O)[C@H](CC[C@@H]4[C@@H]3CC[C@]3(C)[C@@H](C5=CC(=O)OC5)CC[C@]43O)C2)O[C@@H](C)[C@@H]1O [Peruvoside]
reduced potency relative to convallatoxin ([1]; HeLa rtTA-HIV-ΔMls cells): 10 fold | IC50 [1, 2]: 80 nM | IC90 [1, 3]: 250 nM

CC1OC(OC2CC(O)C3(CO)C4C(O)CC5(C)C(C(=CC(=O)O)CO)CCC5(O)C4CCC3(O)C2)C(O)C(O)C1O (stereo not drawn) [RIDK-21]
anti-HIV-1 activity ([1]; HeLa rtTA-HIV-ΔMls cells): reduced/no anti-HIV-1 activity | IC50 ([1]; HIV-1 Gag expression, p24CA ELISA, 4 h drug then Dox ~20 h): > 100 nM

Cn1cnc2c(F)c(Nc3ccc(Br)cc3Cl)c(C(=O)NOCCO)cc21 [Selumetinib]
reversal of CS inhibition of HIV-1 Gag-GFP expression by pathway inhibitor pre-treatment (HIV-1 Gag-GFP expression): partially rescuing

N#CC(=C(/N)Sc1ccccc1N)/C(C#N)=C(/N)Sc1ccccc1N [U0126]
reversal of CS inhibition of HIV-1 Gag-GFP expression by pathway inhibitor pre-treatment (HIV-1 Gag-GFP expression): partially restored
